Assays:
[1] = system: colorectal CT26 cancer cells; assay: Compound-induced L-lactate release (Assay #1), CT26; assay type: cell-based, mouse; conditions: 10 µM; for [LAC] increase: 24 h exposure, L-lactate secretion above basal release; for L-lactate release compared with reference compound aa: 24 h
Protocol: (§1) L-lactate concentration was measured in a semi-automated manner using CMA Microdialysis AB enzymatic assay and a CMA 600 analyzer (Aurora Borealis, Schoonebeek, The Netherlands) as previously described. Briefly, cells (2 × 10^5 cells per well; 3 wells/condition) were seeded in 12-well plates with 2 mL of their routine culture medium. After 24 h, medium was replaced by 500 µL of DMEM containing 10 mmol/L D-glucose and supplemented with 2 mmol/L L-glutamine and 10% dialyzed FBS (Sigma-Aldrich), in the presence of the compounds or vehicle (DMSO). The initial concentration of L-lactate in the experimental medium was also assessed by including control wells containing only cell culture medium (no cells) on each plate. After incubation for 24 h, extracellular media were collected and deproteinized by centrifugation (15 min, 10,000 rpm, 4 °C) in 10 kDa cut-off filter tubes (VWR, Avantor, Leuven, Belgium). Differences in L-lactate concentrations between control and treated cells were calculated and normalized by the protein content in each well and expressed in µmol/h/mg protein. Oxygen-consumption rate (OCR) was measured using the Seahorse XF96 plate reader as previously reported. Briefly, cells (2 × 10^4 cells per well) were first permeabilized with 1 nM Seahorse XF Plasma Membrane Permeabilizer (#102504-100; Agilent, Machelen, Belgium) and respiration was stimulated by adding 10 mM pyruvate, 5 mM malate, and 2 mM ADP. After baseline OCR determination, compounds were added (to inhibit complex I) followed by 10 mM succinate to fuel complex II and rescue the electron transport chain. In some experiments, the effects of selected hits on basal OCR were evaluated in intact cells (including in the presence of MCT1/2 inhibitor AR-C155858 [29] or methylpyruvate). OCR data were normalized according to protein content in each well.
Figure 3 Compound-induced L-lactate release (Assay #1). Culture medium was collected after 24 h exposure to the indicated compounds (10 µM) and the amount of extracellular L-lactate release was determined in a semi-automated manner; dose-dependent effects of complex I inhibitor IACS are shown on the right (shaded bars). Bar graph depicts the extent of L-lactate secretion above the basal release as determined in the absence of any compound (n = 3, ** p < 0.01 for increased L-lactate release vs. reference compound aa).

mitochondrial complex I = mitochondrial complex I (Mus musculus, UniProt P03888+Q91WD5+Q9DC70); assay: Seahorse OCR in permeabilized CT26 cancer cells, mitochondrial complex I inhibition (Assay #2); assay type: cell-based; conditions: for IC50: pyruvate/malate, tested at 1 and 10 µM, read-out: OCR inhib. (IC50); for significant inhibition of complex I: up to 10 µM
Protocol: as §1
(A–D). Graphs depict changes in O2 consumption rate (OCR) measured with the Seahorse technology on permeabilized CT26 cancer cells upon successive addition of pyruvate/malate, the indicated inhibitor and succinate. […] (E,F).

intact CT26 cancer cells = assay: Seahorse basal OCR and ECAR in intact (non-permeabilized) CT26 cancer cells; assay type: cell-based, mouse; conditions: for restoration of OCR / OXPHOS activity in cells exposed to aa compound: intact CT26 cells exposed to aa
Protocol: as §1
Since other lactate transporters could be involved, we also used methylpyruvate which can bypass the need for a mitochondrial carrier and mimic the result of lactate oxidation by a mitochondrial LDH or ensure the delivery of pyruvate into the mitochondria matrix. […] In the same experiments carried out on non-permeabilized cancer cells, the extent of basal OCR inhibition in response to 10 µM aa was similar to that observed with 100 nM IACS-010759 (−52 ± 5% and −45 ± 6%, respectively) and mirrored by an increase in extracellular acidification rate (ECAR) (+36 ± 11% and +29 ± 9%, respectively).

CT26 colon cancer cells = assay: Growth inhibitory effects on cultured CT26 cells (Presto Blue); assay type: cell-based, mouse; conditions: CT26 monolayers, 1 µM, 72 h
Source text: (§2) Mouse colorectal CT26 and breast 4T1 cancer cells as well as human cervix cancer SiHa and breast MDA-MD-231 cancer cells were acquired from ATCC where they are regularly authenticated by short tandem repeat profiling. They were stored according to the supplier’s instructions and used within 6 months after resuscitation of frozen aliquots. Cancer cells were maintained in DMEM (Life Technologies, ThermoFischer scientific, Merebelke, Belgium) supplemented with 10% heat-inactivated FBS. All cell lines were tested for mycoplasma contamination with the MycoAlert™ Mycoplasma Detection kit (#LT07-318; Lonza, Verviers, Belgium) before being used. Cell integrity was determined by the Trypan Blue exclusion method (using Bürker chambers) while cell growth was assessed by using the Presto Blue reagent (Life Technologies) according to manufacturer’s instructions.
(§3) Figure 4 Mitochondrial complex I activity inhibition (Assay #2). (A–D). Graphs depict changes in O2 consumption rate (OCR) measured with the Seahorse technology on permeabilized CT26 cancer cells upon successive addition of pyruvate/malate, the indicated inhibitor and succinate. OXPHOS I inhibitor IACS was used as a control in the experiments testing reference compound aa (A), and compound aa (10µM) was used as reference for testing au, ah and at derivatives (B–D) (n = 6 per compound). (E,F). Growth inhibitory effects of cultured CT26 (E) and 4T1 […] cancer cells exposed to 100 nM IACS or 1 µM aa, ag, aj and au compounds for 72 h; data represent the reduced extent (expressed as %) of cell viability (determined with Presto Blue) when compared with vehicle conditions (n = 3).

breast 4T1 cancer cells = assay: Growth inhibitory effects on cultured 4T1 cells (Presto Blue); assay type: cell-based, mouse; conditions: 4T1 monolayers, 1 µM, 72 h, compared with CT26
Source text: as §2, §3

[2] = system: human cervix Siha cancer cells; assay: Growth inhibitory effects on human cancer cells (Presto Blue), SiHa vs MDA-MB-231; assay type: cell-based; conditions: 1 µM
Source text: as §2
Suppl. Figure S3. Growth inhibitory effects of hit compounds on human cancer cells. MDA-M B-231 (A) and Siha (B) cancer cells were exposed to 100 nM IACS or 1 µM aa, ag, aj and au compounds; data represent the reduced extent (expressed as %) of cell viability (determined with Presto Blue) when compared with vehicle conditions (n=3).
(also on this page, place not known: 60Growth inhibitory effects (%) MDA-MB-231 aa au 60Growth inhibitory effects (%))

3D tumor CT26 spheroids = assay: Inhibition of 3D tumor spheroid growth (Assay #3); assay type: cell-based, mouse; conditions: CT26 spheroids, day 10
Protocol: Spheroids were prepared by seeding 1500 cells/well in Ultra-Low Attachment 96-well plate (Corning, Merck, Hoeilaart, Belgium) in DMEM supplemented with 10% heat-inactivated FBS. Inhibitors were added on day 4 (mean diameter of spheroids: 300 µm) and renewed every 3 days. Spheroid growth was monitored using live-cell phase contrast microscope (Axio Observer, Zeiss, Zaventem, Belgium); spheroid area, density and morphology were measured using ImageJ software. Confocal fluorescence microscopy (LSM510, Zeiss, Zaventem, Belgium) was used for detecting pimonidazole immunostaining as previously reported. Spheroids from a same experiment were imaged with the same gain and exposure settings. In some experiments, OXPHOSi treatment was combined with irradiation using a ^137Cs γ-irradiator (IBL-637; CIS-BioInternational, Saclay, France) as previously described.
Figure 5 Inhibition of 3D tumor spheroid growth (Assay #3). […] Drug exposure without (A) or with irradiation (B) was associated with a significant reduction in spheroid sizes vs. untreated spheroids (not shown).

Compound	[LAC] increase [1] [µmol/h/mg]	IC50 (mitochondrial complex I) [µM]	other results
NC(=O)c1cn(Cc2cc(F)c(C(=O)c3ccc(Cl)cc3)c(F)c2)nn1 [aw]	~0	> 10	–
Cc1ccc(C(=O)c2c(Cl)cc(Cn3nnc(C(N)=O)c3N)cc2Cl)cc1 [ac]	~2	~10	–
NC(=O)c1nnn(Cc2cc(Cl)cc(Cl)c2)c1N [aq]	~0	> 10	–
Cc1nc(-c2nc(-c3ccc(OC(F)(F)F)cc3)no2)nn1Cc1cccc(N2CCC(S(C)(=O)=O)CC2)c1 [IACS-010759, reference compound]	–	–	concentration giving the same extent of maximal OCR inhibition (mitochondrial complex I): 100 nM; increase in extracellular acidification rate (ECAR) (intact CT26 cancer cells; non-permeabilized CT26 cells, 100 nM): +29 ± 9%
CC(=O)c1c(Cl)cc(Cn2nnc(C(N)=O)c2N)cc1Cl [ao]	~2	> 10	significant inhibition of complex I (mitochondrial complex I): did not show significant inhibition of complex I
NC(=O)c1nnn(Cc2cc(Cl)c(C(=O)c3ccc(C(F)(F)F)cc3)c(Cl)c2)c1N [ag]	~4	–	L-lactate release compared with reference compound aa [1]: more potent inducers of L-lactate release; cytotoxic / growth inhibitory effects (CT26 colon cancer cells): very limited effects; growth inhibitory activity (breast 4T1 cancer cells): more significant growth inhibitory activity; antiproliferative effects in Siha compared with MDA-MB-231 cells [2]: Larger antiproliferative effects; spheroid growth inhibition compared with reference compound aa (3D tumor CT26 spheroids): inhibited spheroid growth to the same extent as compound aa
NC(=O)c1nnn(Cc2cc(Cl)c(CN3CCOCC3)c(Cl)c2)c1N [ai]	~2	> 10	significant inhibition of complex I (mitochondrial complex I): did not show significant inhibition of complex I
Nc1c(C(=O)O)nnn1Cc1ccccc1N1CCSCC1 [bf]	~0	> 10	–
NC(=O)c1cn(Cc2cc(Cl)c(C(=O)c3ccc(Cl)cc3)c(Cl)c2)nn1 [as]	~2	> 10	significant inhibition of complex I (mitochondrial complex I): did not show significant inhibition of complex I
NC(=O)c1nnn(Cc2cc(Cl)c(Cc3ccc(C(F)(F)F)cc3)c(Cl)c2)c1N [compound al]	~0	> 10	–
NC(=O)c1nnn(Cc2cc(F)c(C(=O)c3ccc(Cl)cc3)c(F)c2)c1N [an]	~4	~10	L-lactate release compared with reference compound aa [1]: more potent inducers of L-lactate release; spheroid growth inhibition compared with reference compound aa (3D tumor CT26 spheroids): inhibited spheroid growth to the same extent as compound aa
Nc1c(C(=O)O)nnn1Cc1ccc(NC(=O)c2ccc(Cl)cc2)cc1 [ba]	~0	> 10	–
NC(=O)c1nnn(Cc2cc(Cl)c(C(=O)c3ccc(OC(F)(F)F)cc3)c(Cl)c2)c1N [af]	~2	~10	–
O=C(c1ccc(Cl)cc1)c1c(Cl)cc(Cn2cc(CO)nn2)cc1Cl [av]	~0	> 10	–
Cc1cccc(C(=O)c2c(Cl)cc(Cn3nnc(C(N)=O)c3N)cc2Cl)c1 [ad]	~2	~10	–
COC(=O)C(C)=O [Methylpyruvate, methylpyruvate]	–	–	restoration of OCR / OXPHOS activity in cells exposed to aa compound (intact CT26 cancer cells): failed to restore OXPHOS activity
NC(=O)c1nnn(Cc2cc(Cl)c(C(=O)c3ccc4ccccc4c3)c(Cl)c2)c1N [ah]	~2	~10	pattern of OCR inhibition activity relative to aa (mitochondrial complex I; 1 and 10 µM): hypoactive
NC(=O)c1nnn(Cc2cc(Cl)c(C(=O)c3ccccc3)c(Cl)c2)c1N [ab]	~2	~10	–
Cc1n[nH]c(C)c1Cc1sc2c(c1C(=O)N1C[C@H](O)CO1)c(=O)n(C)c(=O)n2CC(C)C [AR-C155858]	–	–	restoration of OCR / OXPHOS activity in cells exposed to aa compound (intact CT26 cancer cells): failed to restore OCR
Nc1c(C(=O)O)nnn1Cc1cccc(NC(=O)c2ccc(OC(F)(F)F)cc2)c1 [bb]	~0	> 10	–
Nc1c(C(=O)O)nnn1Cc1cccc(N2CCOCC2)c1 [bd]	~0	> 10	–
Cc1cc(C)cc(Cn2nnc(C(N)=O)c2N)c1 [ap]	~0	> 10	–
O=C(O)c1cn(Cc2cc(Cl)c(C(=O)c3ccc(Cl)cc3)c(Cl)c2)nn1 [ar]	~0	> 10	–
Nc1c(C(=O)O)nnn1Cc1ccccc1NC(=O)c1ccc(OC(F)(F)F)cc1 [be]	~0	> 10	–
COc1ccc(C(=O)c2c(Cl)cc(Cn3nnc(C(N)=O)c3N)cc2Cl)cc1 [ae]	~2	~10	–
CC(C)(C)OC(=O)N1CCC(Nc2cccc(Cn3nnc(C(=O)O)c3N)c2)CC1 [bc]	~0	> 10	–
C=CCNC(=O)c1nnn(Cc2cc(Cl)c(C(=O)c3ccc(C(F)(F)F)cc3)c(Cl)c2)c1N [ak]	~0	> 10	–

Reference: publication PMC9658316, “Discovery of Mitochondrial Complex I Inhibitors as Anticancer and Radiosensitizer Drugs Based on Compensatory Stimulation of Lactate Release” (Cancers, 2022)
